From PubChem BioAssay AID1259408 (Genetic Toxicology Data Bank (GENE-TOX), 2018)
Calls of active or inactive are those of the source. The rule behind the calls is not given here. Numbered stars: 1 amine (or outer) side, 2 acyl side, 3 side chain; on linkers, the order of the positions; unused ones are H or OH. Bridge positions count the residues as written; N and C are the ends. Square brackets hold non-standard residues; d marks the D form. Peptide text beside a SMILES is read from it. I, II: the chains in the order shown. Actinocin(9to1) = Cc1c2oc3c(C)ccc(C(=O)[*:1])c3nc-2c(C(=O)[*:2])c(N)c1=O; NMeV = CN[C@H](C(=O)O)C(C)C; Sar = CNCC(=O)O

System: GENE-TOX genotoxicity assays, various organisms and cells
Assay: GENE-TOX mutagenicity studies
Conditions: for call: Assay Type: In vivo carcinogenicity studies
[1] = Species/Cell Type: Chinese hamster lung (V79) cells, Assay Type: Forward gene mutation at the HPRT or ouabain locus, Assay Code: V79-, Evaluation Type: Evaluation A (Pre-1980)
[2] = Species/Cell Type: Saccharomyces cerevisiae, Assay Type: Mitotic recombination or gene conversion, Assay Code: YEH-, Evaluation Type: Evaluation A (Pre-1980)
[3] = Species/Cell Type: Salmonella typhimurium (one or more of the five standard strains: TA98, TA100, TA1535, TA1537, and TA1538), Assay Type: Histidine reverse gene mutation, Ames assay, Assay Code: SAL-, Evaluation Type: Evaluation A (Pre-1980)
[4] = Species/Cell Type: Drosophila melanogaster, Assay Type: Sex-linked recessive lethal gene mutation, Assay Code: SRLT, Evaluation Type: Evaluation A (Pre-1980)
[5] = Species/Cell Type: Escherichia coli polA (W3119 vs P3478), Assay Type: Rec-assay, DNA effects (bacterial DNA repair), Assay Code: RE1T, Evaluation Type: Evaluation A (Pre-1980)
[6] = Species/Cell Type: Nonhuman, Assay Code: CCG+L, Evaluation Type: Evaluation A (Pre-1980)
[7] = Species/Cell Type: Nonhuman, Assay Type: Sister-chromatid exchange (SCE) in vivo, Assay Code: SC3+, Evaluation Type: Evaluation B (Post-1980)
[8] = Species/Cell Type: Salmonella typhimurium (one or more of the five standard strains: TA98, TA100, TA1535, TA1537, and TA1538), Assay Type: Histidine reverse gene mutation, Ames assay, Assay Code: SALT, Evaluation Type: Evaluation A (Pre-1980)
[9] = Species/Cell Type: Human, Assay Type: Sister-chromatid exchange (SCE) in vitro, Assay Code: SC1+D, Dose Response: With dose response, Evaluation Type: Evaluation B (Post-1980)
[10] = Species/Cell Type: Nonhuman, Assay Type: Sister-chromatid exchange (SCE) in vivo, Assay Code: SC3+D, Dose Response: With dose response, Evaluation Type: Evaluation B (Post-1980)

In the case of `C1=C[C@H]2O[C@H]2c2c1cc1ccc3cccc4ccc2c1c34`, the mutagenic call [1] is reported as “inactive; negative”, the call (Species/Cell Type: Nonhuman, Assay Code: CCGT, Evaluation Type: Evaluation A (Pre-1980)) is reported as “no conclusion” and the mutagenic call (Species/Cell Type: Salmonella typhimurium (one or more of the five standard strains: TA98, TA100, TA1535, TA1537, and TA1538), Assay Type: Histidine reverse gene mutation, Ames assay, Assay Code: SAL+, Evaluation Type: Evaluation A (Pre-1980)) is reported as “active; positive”.

`Cc1cccn2c1nc1ccc(N)nc12` was tested, and the mutagenic call (Species/Cell Type: Human, Assay Type: Sister-chromatid exchange (SCE) in vitro, Assay Code: SC1+D*, Activation: With metabolic activation, Dose Response: With dose response, Evaluation Type: Evaluation B (Post-1980)) was “active; positive”.

With `O[C@H]1[C@@H](O)Cc2c(cc3ccc4cccc5ccc2c3c45)[C@@H]1O` the mutagenic call [1] was “inactive; negative”.

In the case of `Cc1ccc(Cl)cc1`, the mutagenic call [2] is reported as “inactive; negative” and the mutagenic call [3] is reported as “inactive; negative”.

`Cc1c2oc3c(C)ccc(C(=O)N[C@@H]4C(=O)N[C@H](C(C)C)C(=O)N5CCC[C@H]5C(=O)N(C)CC(=O)N(C)[C@@H](C(C)C)C(=O)O[C@@H]4C)c3nc-2c(C(=O)N[C@@H]2C(=O)N[C@H](C(C)C)C(=O)N3CCC[C@H]3C(=O)N(C)CC(=O)N(C)[C@@H](C(C)C)C(=O)O[C@@H]2C)c(N)c1=O` (I: T[dV]P[Sar][NMeV] / II: T[dV]P[Sar][NMeV]; ester I:1-I:C, II:1-II:C; linker I:N-II:N via Actinocin(9to1)) was tested, and the mutagenic call (Species/Cell Type: Allium cepa, Assay Type: Chromosome aberrations, Assay Code: ALC+, Evaluation Type: Evaluation A (Pre-1980)) was “active; positive”, the mutagenic call [1] was “inactive; negative” and the mutagenic call (Species/Cell Type: Chinese hamster ovary (CHO) cells, Assay Type: Forward gene mutation at the HPRT locus, Assay Code: CHO+, Evaluation Type: Evaluation B (Post-1980)) was “active; positive”. For the same molecule, the mutagenic call (Species/Cell Type: Drosophila melanogaster, Assay Type: Aneuploidy, sex chromosome gain, chromosome aberrations, Assay Code: DAG+F, Evaluation Type: Evaluation A (Pre-1980)) was “active; positive”, the mutagenic call (Species/Cell Type: Drosophila melanogaster, Assay Type: Aneuploidy, whole sex chromosome loss, chromosome aberrations, Assay Code: DAC+F, Evaluation Type: Evaluation A (Pre-1980)) was “active; positive” and the mutagenic call [4] was “no conclusion”. For the same molecule, the mutagenic call [5] was “no conclusion”, the mutagenic call (Species/Cell Type: Glycine max (soybean), Assay Type: Gene mutation, Assay Code: GLM+, Evaluation Type: Evaluation A (Pre-1980)) was “active; positive” and the mutagenic call (Species/Cell Type: Human cell culture, Assay Type: Chromosome aberrations in vitro, Assay Code: CYZ+D, Dose Response: With dose response, Evaluation Type: Evaluation A (Pre-1980)) was “active; positive”. For the same molecule, the mutagenic call (Species/Cell Type: Human lymphocytes, Assay Type: Sister-chromatid exchange (SCE) in vivo, Assay Code: SCY+, Evaluation Type: Evaluation B (Post-1980)) was “active; positive”, the mutagenic call (Species/Cell Type: Mammalian polychromatic erythrocytes, Assay Type: Micronucleus test, chromosome aberrations, Assay Code: MNTT, Evaluation Type: Evaluation A (Pre-1980)) was “no conclusion” and the mutagenic call (Species/Cell Type: Mouse (C3H/10T1/2) cells, Assay Type: Cell transformation, Assay Code: CTH+, Evaluation Type: Evaluation A (Pre-1980)) was “active; positive”. For the same molecule, the mutagenic call (Species/Cell Type: Mouse, Sex: Male, Assay Type: Sperm morphology, Assay Code: SPI+, Evaluation Type: Evaluation A (Pre-1980)) was “active; positive”, the mutagenic call (Species/Cell Type: Neurospora crassa, Assay Type: Forward gene mutation, Assay Code: NEF+, Evaluation Type: Evaluation A (Pre-1980)) was “active; positive” and the mutagenic call (Species/Cell Type: Nonhuman, Assay Type: Chromosome aberrations in vitro, Assay Code: CY&+, Evaluation Type: Evaluation A (Pre-1980)) was “active; positive”. For the same molecule, the call [6] was “active; positive”, the mutagenic call (Species/Cell Type: Nonhuman, Assay Type: Sister-chromatid exchange (SCE) in vitro, Assay Code: SC2+, Evaluation Type: Evaluation A (Pre-1980)) was “active; positive” and the mutagenic call [7] was “active; positive”. For the same molecule, the mutagenic call (Species/Cell Type: Saccharomyces cerevisiae, Assay Type: Forward gene mutation, Assay Code: YEFT, Evaluation Type: Evaluation A (Pre-1980)) was “no conclusion”.

`Cc1ccc2c(ccc3cc4ccccc4cc32)c1` was tested, and the mutagenic call (Species/Cell Type: Nonhuman, Assay Type: Sister-chromatid exchange (SCE) in vitro, Assay Code: SC2-, Evaluation Type: Evaluation B (Post-1980)) was “inactive; negative” and the mutagenic call (Species/Cell Type: Salmonella typhimurium (one or more of the five standard strains: TA98, TA100, TA1535, TA1537, and TA1538), Assay Type: Histidine reverse gene mutation, Ames assay, Assay Code: SAL+*, Activation: With metabolic activation, Evaluation Type: Evaluation A (Pre-1980)) was “active; positive”.

With `CC[N+]([O-])(CC)CCNc1ccc(C)c2sc3ccccc3c(=O)c12` the mutagenic call [8] was “no conclusion”.

`CCOP(=S)(OCC)Oc1ccc(S(C)=O)cc1` (stereo not drawn) was tested, and the mutagenic call (Species/Cell Type: Bacillus subtilis (H17 vs M45), Assay Type: Rec-assay, spot test, DNA effects (bacterial DNA repair), Assay Code: REWT, Evaluation Type: Evaluation A (Pre-1980)) was “no conclusion”, the mutagenic call (Species/Cell Type: Drosophila melanogaster, Assay Type: Sex-linked recessive lethal gene mutation, Assay Code: SRL-, Evaluation Type: Evaluation A (Pre-1980)) was “inactive; negative” and the mutagenic call (Species/Cell Type: Escherichia coli WP2 UVRA, Assay Type: Tryptophan reverse gene mutation, Assay Code: WPU-*, Activation: With metabolic activation, Evaluation Type: Evaluation A (Pre-1980)) was “inactive; negative”. The mutagenic call [5] was “no conclusion”, the mutagenic call (Species/Cell Type: Human diploid fibroblasts, Assay Type: Unscheduled DNA synthesis (UDS) in vitro, DNA effects, Assay Code: UDH-, Evaluation Type: Evaluation A (Pre-1980)) was “inactive; negative” and the mutagenic call (Species/Cell Type: Nonhuman, Assay Type: Sister-chromatid exchange (SCE) in vitro, Assay Code: SC2T, Evaluation Type: Evaluation B (Post-1980)) was “no conclusion”. The mutagenic call [2] was “inactive; negative” and the mutagenic call [3] was “inactive; negative”.

In the case of `CCOC(=O)NO`, the mutagenic call [4] is reported as “no conclusion”, the mutagenic call (Species/Cell Type: Escherichia coli polA (W3119 vs P3478), Assay Type: Rec-assay, DNA effects (bacterial DNA repair), Assay Code: RE1+, Evaluation Type: Evaluation A (Pre-1980)) is reported as “active; positive” and the mutagenic call (Species/Cell Type: Human lymphocytes or leukocytes, Assay Type: Chromosome aberrations in vitro, Assay Code: CY7+, Evaluation Type: Evaluation A (Pre-1980)) is reported as “active; positive”. The mutagenic call (Species/Cell Type: Human lymphocytes, Assay Type: Sister-chromatid exchange (SCE) in vitro, Assay Code: SCL+D, Dose Response: With dose response, Evaluation Type: Evaluation B (Post-1980)) was “active; positive”, the mutagenic call [9] was “active; positive” and the mutagenic call (Species/Cell Type: Mammalian polychromatic erythrocytes, Assay Type: Micronucleus test, chromosome aberrations, Assay Code: MNT+, Evaluation Type: Evaluation A (Pre-1980)) was “active; positive”. The mutagenic call (Species/Cell Type: Mouse embryo (AKR/ME) cells, Assay Type: Cell transformation, Assay Code: CTK+, Evaluation Type: Evaluation A (Pre-1980)) was “active; positive”, the call [6] was “active; positive” and the mutagenic call (Species/Cell Type: Nonhuman, Assay Type: Sister-chromatid exchange (SCE) in vitro, Assay Code: SC2+D, Dose Response: With dose response, Evaluation Type: Evaluation B (Post-1980)) was “active; positive”. The mutagenic call [10] was “active; positive”.

`CCN(CC)CCNc1ccc(C(=O)O)c2sc3ccccc3c(=O)c12` was tested, and the mutagenic call (Species/Cell Type: Fischer rat embryo (RLV/1706) cells, Assay Type: Cell transformation, viral enhanced, Assay Code: CTR+, Evaluation Type: Evaluation A (Pre-1980)) was “active; positive”.

In the case of `[Cl][Ag]`, the mutagenic call (Species/Cell Type: Bacillus subtilis (H17 vs M45), Assay Type: Rec-assay, spot test, DNA effects (bacterial DNA repair), Assay Code: REW-, Evaluation Type: Evaluation A (Pre-1980)) is reported as “inactive; negative”.

With `COP(=S)(OC)Oc1cc(Cl)c(Cl)cc1Cl` the mutagenic call [9] was “active; positive”.

`O=C(OC[C@@H]1O[C@H](OC(=O)c2cc(O)c(O)c(OC(=O)c3cc(O)c(O)c(O)c3)c2)[C@@H](OC(=O)c2cc(O)c(O)c(OC(=O)c3cc(O)c(O)c(O)c3)c2)[C@H](OC(=O)c2cc(O)c(O)c(OC(=O)c3cc(O)c(O)c(O)c3)c2)[C@H]1OC(=O)c1cc(O)c(O)c(OC(=O)c2cc(O)c(O)c(O)c2)c1)c1cc(O)c(O)c(OC(=O)c2cc(O)c(O)c(O)c2)c1` was tested, and the mutagenic call [5] was “no conclusion” and the mutagenic call [10] was “active; positive”.

`CC(=O)Nc1ccc([C@@H]2O[C@H]2c2ccccc2)cc1` was tested, and the mutagenic call [8] was “no conclusion”.

`Nc1nc(-c2cccc3ccccc23)cs1` was tested, and the mutagenic call (Species/Cell Type: Salmonella typhimurium, Assay Type: Forward and reverse gene mutation, host-mediated assay, Assay Code: HMAT, Evaluation Type: Evaluation A (Pre-1980)) was “no conclusion”.

`COc1ccc(N)c(OC)c1` was tested, and the call (Species/Cell Type: Nonhuman, Assay Code: CCG-, Evaluation Type: Evaluation A (Pre-1980)) was “inactive; negative”.

For `N#CCCN`, the mutagenic call [4] was “no conclusion” and the mutagenic call [7] was “active; positive”.

With `[O]=[V]` the mutagenic call (Species/Cell Type: Bacillus subtilis (H17 vs M45), Assay Type: Rec-assay, spot test, DNA effects (bacterial DNA repair), Assay Code: REW+, Evaluation Type: Evaluation A (Pre-1980)) was “active; positive”.
